The text below walks through data of US20190119213A1, “OXO-PYRIDINE-DERIVATIVES AS FACTOR XIA INHIBITORS FOR THE TREATMENT OF THROMBOSIS” (BAYER PHARMA AKTIENGESELLSCHAFT, priority 2015, published 2019).

One experiment concerns the target T1, human factor XIa (Homo sapiens, UniProt P03951).
T1 construct: purchased Kordia
In words: Measurement of FXIa inhibition (fluorogenic peptide substrate). The experiment is classed as biochemical. Particulars: factor XIa from Kordia 0.45 nM; substrate Boc-Glu(OBzl)-Ala-Arg-AMC; 30 min at 22° C. Here is the method:
The factor XIa inhibition of the inventive substances is determined using a biochemical test system which utilizes the reaction of a peptidic factor XIa substrate to determine the enzymatic activity of human factor XIa. Here, factor XIa cleaves from the peptic factor XIa substrate the C-terminal aminomethylcoumarin (AMC), the fluorescence of which is measured. The determinations are carried out in microtitre plates.
Test substances are dissolved in dimethyl sulphoxide and serially diluted in dimethyl sulphoxide (3000 μM to 0.0078 μM; resulting final concentrations in the test: 50 μM to 0.00013 μM). In each case 1 μl of the diluted substance solutions is placed into the wells of white microtitre plates from Greiner (384 wells). 20 μl of assay buffer (50 mM of Tris/HCl pH 7.4; 100 mM of sodium chloride; 5 mM of calcium chloride; 0.1% of bovine serum albumin) and 20 μl of factor XIa from Kordia (0.45 nM in assay buffer) are then added successively. After 15 min of incubation, the enzyme reaction is started by addition of 20 μl of the factor XIa substrate Boc-Glu(OBzl)-Ala-Arg-AMC dissolved in assay buffer (10 μM in assay buffer) from Bachem, the mixture is incubated at room temperature (22° C.) for 30 min and fluorescence is then measured (excitation: 360 nm, emission: 460 nm). The measured emissions of the test batches with test substance are compared to those of control batches without test substance (only dimethyl sulphoxide instead of test substance in dimethyl sulphoxide), and IC50 values are calculated from the concentration/activity relationships.

A further experiment has as its target T2, human plasma kallikrein (Homo sapiens, UniProt P03952).
T2 construct: purchased Kordia
The experiment can be described thus: Determination of the plasma kallikrein activity (fluorogenic peptide substrate). The experiment is classed as biochemical. Particulars: plasma kallikrein from Kordia 0.6 nM; substrate H-Pro-Phe-Arg-AMC; 30 min at 22° C. Here is the method:
To determine the plasma kallikrein inhibition of the substances according to the invention, a biochemical test system is used which utilizes the reaction of a peptidic plasma kallikrein substrate to determine the enzymatic activity of human plasma kallikrein. Here, plasma kallikrein cleaves from the peptic plasma kallikrein substrate the C-terminal aminomethylcoumarin (AMC), the fluorescence of which is measured. The determinations are carried out in microtitre plates.
Test substances are dissolved in dimethyl sulphoxide and serially diluted in dimethyl sulphoxide (3000 μM to 0.0078 μM; resulting final concentrations in the test: 50 μM to […] each case 1 μl of the diluted substance solutions is placed into the wells of white microtitre plates from Greiner (384 wells). 20 μl of assay buffer (50 mM Tris/HCl pH 7.4; 100 mM sodium chloride solution; 5 mM of calcium chloride solution; 0.1% of bovine serum albumin) and 20 μl of plasma kallikrein from Kordia (0.6 nM in assay buffer) are then added successively. After 15 min of incubation, the enzyme reaction is started by addition of 20 μl of the substrate H-Pro-Phe-Arg-AMC dissolved in assay buffer (10 μM in assay buffer) from Bachem, the mixture is incubated at room temperature (22° C.) for 30 min and fluorescence is then measured (excitation: 360 nm, emission: 460 nm). The measured emissions of the test batches with test substance are compared to those of control batches without test substance (only dimethyl sulphoxide instead of test substance in dimethyl sulphoxide), and IC50 values are calculated from the concentration/activity relationships.

T1 sequence (P03951 388-625 limits assumed): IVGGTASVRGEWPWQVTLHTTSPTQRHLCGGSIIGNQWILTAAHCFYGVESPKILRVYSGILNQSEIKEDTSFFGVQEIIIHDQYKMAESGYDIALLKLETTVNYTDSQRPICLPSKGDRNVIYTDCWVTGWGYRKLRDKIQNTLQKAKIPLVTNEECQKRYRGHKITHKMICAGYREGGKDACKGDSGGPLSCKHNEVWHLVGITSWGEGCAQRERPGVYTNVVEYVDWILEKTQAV
T1 sequence (P03951 19-387 partner limits assumed): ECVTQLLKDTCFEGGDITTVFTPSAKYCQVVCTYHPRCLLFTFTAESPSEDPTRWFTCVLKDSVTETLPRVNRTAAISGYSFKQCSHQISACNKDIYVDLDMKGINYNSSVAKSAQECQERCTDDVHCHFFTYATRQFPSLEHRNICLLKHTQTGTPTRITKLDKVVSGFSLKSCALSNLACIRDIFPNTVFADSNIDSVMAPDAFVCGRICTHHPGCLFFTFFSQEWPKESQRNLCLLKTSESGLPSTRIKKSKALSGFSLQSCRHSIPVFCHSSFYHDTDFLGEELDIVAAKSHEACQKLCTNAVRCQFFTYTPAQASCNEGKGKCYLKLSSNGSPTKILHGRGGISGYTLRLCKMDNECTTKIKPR
T2 sequence (P03952 391-638 limits assumed): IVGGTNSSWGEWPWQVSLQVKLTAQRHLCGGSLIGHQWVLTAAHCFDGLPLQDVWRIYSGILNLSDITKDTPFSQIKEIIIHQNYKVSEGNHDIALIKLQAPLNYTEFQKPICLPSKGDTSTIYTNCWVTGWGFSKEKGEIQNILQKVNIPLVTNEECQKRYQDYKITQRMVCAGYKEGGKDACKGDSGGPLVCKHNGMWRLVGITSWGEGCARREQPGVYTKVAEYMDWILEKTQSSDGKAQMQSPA
T2 sequence (P03952 20-390 partner limits assumed): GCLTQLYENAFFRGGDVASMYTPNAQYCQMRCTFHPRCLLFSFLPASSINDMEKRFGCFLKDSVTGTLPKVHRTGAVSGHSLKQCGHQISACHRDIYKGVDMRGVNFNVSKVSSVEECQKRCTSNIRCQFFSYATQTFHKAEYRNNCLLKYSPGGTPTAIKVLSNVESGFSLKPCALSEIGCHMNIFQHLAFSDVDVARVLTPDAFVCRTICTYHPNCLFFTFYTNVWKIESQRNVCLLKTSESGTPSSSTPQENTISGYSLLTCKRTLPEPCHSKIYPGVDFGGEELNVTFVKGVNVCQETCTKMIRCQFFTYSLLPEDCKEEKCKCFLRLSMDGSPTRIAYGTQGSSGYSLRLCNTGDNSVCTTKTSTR

Turning to `COc1cn([C@@H](CCOC2(C)CCC2)C(=O)Nc2ccc(C(=O)O)cc2)c(=O)cc1-c1cc(Cl)ccc1C#N` (single isomer, unassigned; enantiomer 2) [Example 10], the IC50 against human factor XIa was 0.4 nM; at human plasma kallikrein, 2.4 nM.
Take `COc1cn(C(CCOC2CCC2)C(=O)Nc2ccc(C(=O)O)cc2)c(=O)cc1-c1cc(Cl)ccc1C#N` (racemic) [Example 3, 4-({2-[4-(5-Chloro-2-cyanophenyl)-5-methoxy-2-oxopyridin-1(2H)-yl]-4-(cyclobutyloxy)butanoyl}amino)benzoic acid (racemate)]: the figures for the IC50 against human factor XIa and against human plasma kallikrein were 0.6 nM and 2.6 nM, respectively.
On to `COc1cn([C@@H](CCOC(C)C)C(=O)Nc2ccc(C(=O)O)cc2)c(=O)cc1-c1cc(Cl)ccc1C#N` (single isomer, unassigned; enantiomer 2) [Example 2], for which the concentration for half-maximal inhibition (IC50) on human factor XIa worked out at 0.9 nM; against human plasma kallikrein it was 4.8 nM.
The corresponding values for `COc1cn(C(CCOC2(C)CCC2)C(=O)Nc2ccc(C(=O)O)cc2)c(=O)cc1-c1cc(Cl)ccc1C#N` (racemic) [Example 9, 4-({2-[4-(5-Chloro-2-cyanophenyl)-5-methoxy-2-oxopyridin-1(2H)-yl]-4-[(1-methylcyclobutyl)oxy]butanoyl}amino)benzoic acid (racemate)] are 1 nM and 6.5 nM.
On to `COc1cn(C(CCOC(C)(C)C)C(=O)Nc2ccc(C(=O)O)cc2)c(=O)cc1-c1cc(Cl)ccc1C#N` (racemic) [Example 5, 4-({4-tert-Butoxy-2-[4-(5-chloro-2-cyanophenyl)-5-methoxy-2-oxopyridin-1(2H)-yl]butanoyl}amino)benzoic acid (racemate)], for which the IC50 against human factor XIa is 0.7 nM; at human plasma kallikrein it was 3.9 nM.
With `COc1cn([C@@H](CCOC2(C)CCC2)C(=O)Nc2ccc(C(=O)O)cc2)c(=O)cc1-c1cc(Cl)ccc1OC(F)F` (single isomer, unassigned; enantiomer 2) [Example 12], the 50% inhibitory concentration (IC50) came to 1.5 nM at human factor XIa and 27 nM at human plasma kallikrein.
The corresponding values for `COc1cn([C@@H](CCOC2CCC2)C(=O)Nc2ccc(C(=O)O)cc2)c(=O)cc1-c1cc(Cl)ccc1C#N` (single isomer, unassigned; enantiomer 2) [Example 4] are 0.4 nM and 1.4 nM.
As for `COc1cn([C@@H](CCOC(C)(C)C)C(=O)Nc2ccc(C(=O)O)cc2)c(=O)cc1-c1cc(Cl)ccc1C#N` (single isomer, unassigned; enantiomer 2) [Example 6], the IC50 against human factor XIa was 0.3 nM; at human plasma kallikrein it was 2.2 nM.
For `COc1cn(C(CCOC(C)(C)C)C(=O)Nc2ccc(C(=O)O)cc2)c(=O)cc1-c1cc(Cl)ccc1OC(F)F` (racemic) [Example 7, 4-[(4-tert-Butoxy-2-{4-[5-chloro-2-(difluoromethoxy)phenyl]-5-methoxy-2-oxopyridin-1(2H)-yl}butanoyl)amino]benzoic acid (racemate)], in that order: 2.9 nM and 38 nM.
With `COc1cn([C@@H](CCOC(C)(C)C)C(=O)Nc2ccc(C(=O)O)cc2)c(=O)cc1-c1cc(Cl)ccc1OC(F)F` (single isomer, unassigned; enantiomer 2) [Example 8], the half-maximal inhibitory concentration (IC50) amounted to 1.5 nM on human factor XIa and 29 nM against human plasma kallikrein.
The corresponding values for `COc1cn(C(CCOC2(C)CCC2)C(=O)Nc2ccc(C(=O)O)cc2)c(=O)cc1-c1cc(Cl)ccc1OC(F)F` (racemic) [Example 11, 4-[(2-{4-[5-Chloro-2-(difluoromethoxy)phenyl]-5-methoxy-2-oxopyridin-1(2H)-yl}-4-[(1-methylcyclobutyl)oxy]butanoyl)amino]benzoic acid (racemate)] are 2.2 nM and 45 nM.
For `COc1cn(C(CCOC(C)C)C(=O)Nc2ccc(C(=O)O)cc2)c(=O)cc1-c1cc(Cl)ccc1C#N` (racemic) [Example 1, 4-({2-[4-(5-Chloro-2-cyanophenyl)-5-methoxy-2-oxopyridin-1(2H)-yl]-4-isopropoxybutanoyl}-amino)benzoic acid (racemate)], in that order: 1.2 nM and 5.6 nM.
